The subject of the experiment is tonic extensor seizure. Put plainly: maximal electroshock test (MES), block of tonic extensor seizure in mice. It is filed as in vivo, male albino mice of the Swiss Webster strain. On the procedure:
The compounds of formula (I) are useful as anticonvulsant agents. The anticonvulsant activity of the subject compounds was determined using a standard "maximal electroshock test" (MES). In this test, activity is indicated by a block of the tonic extensor seizure caused by application of an electric shock to mice via corneal electrodes, as described by Swinyard et al. in J. Pharmacol. Exptl. Therap. 106, 319 (1952). A more recent description of current anticonvulsant drug screening is given in Swinyard et al. in Epilepsia 19, 409 (1978). Non-fasted male albino mice of the Swiss Webster strain (Royal-Hart Laboratories, New Hampton, N.Y.) weighing 18-24 grams were used in this test. Six to eight groups of ten mice each were used per ED50 determination. The test compounds were administered as aqueous solutions or suspensions prepared with Tween 80 and water. Testing was conducted at 30 minutes following intraperitoneal injection and at 60 minutes following oral administration of the test compound. A group of ten mice injected with saline 10 ml/kg i.p. and tested 30 minutes later served as controls. ED50 's were calculated using a computerized probit analysis procedure.
(The maximal electroshock test induces tonic seizures with an electrical stimulus.)

In the case of `NS(=O)(=O)OCCc1ccccc1` [Example 1b, Phenethylsulfamate], the “MES Test % Inhibition” value is given as 90% (100 mg/kg, 30 min i.p.) and 100% (200 mg/kg, 60 min p.o.). For `NS(=O)(=O)OCCc1cccc(C(F)(F)F)c1` [Example 2, 3-(Trifluoromethyl)phenethylsulfamate], in that order: 70% and 100%. `COc1ccc(CCOS(N)(=O)=O)cc1OC` [Example 3, 3,4-Dimethoxyphenethyl sulfamate]: the “MES Test % Inhibition” value (500 mg/kg i.p. in 30 min) stood at 30%.

As for `Cc1ccccc1CCOS(N)(=O)=O` [Example 5, 2-Methylphenethyl sulfamate], the “MES Test % Inhibition” value (100 mg/kg, 30 min i.p.) was 90% and the “MES Test % Inhibition” value (200 mg/kg, 60 min p.o.) is on record as 70%. As for `NS(=O)(=O)OCCc1cccc([N+](=O)[O-])c1` [Example 6, 3-Nitrophenethylsulfamate], the “MES Test % Inhibition” value reads like this: (100 mg/kg, 30 min i.p.) 80%; (200 mg/kg, 60 min p.o.) 40%.
